Reference: the supplement of paper PMC11451515

Test system: SEM cells
Experiment: cell viability relative to DMSO control; higher = less cytotoxic
Conditions: 48 h
Method in brief: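 Leukemia cells (NOMO1 or SEM, 500 cells/well; P12-Ichikawa, 1000 cells/well) were seeded in 5 μl in 1536-well plates after at least four passages of adaptation to each medium. They received library compounds in DMSO by pin dosing, 11 threefold points from 47 μM to 0.79 nM. Luminescence with CellTiter-Glo One was read after 48 h at 37°C. Viability is stated per plate relative to DMSO wells, with cell-free wells as background.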

[1] = HPLM + 10% dialyzed FBS, 0.000781 µM
[2] = HPLM + 10% dialyzed FBS, 0.00234 µM
[3] = HPLM + 10% dialyzed FBS, 0.00702 µM
[4] = HPLM + 10% dialyzed FBS, 0.0211 µM
[5] = HPLM + 10% dialyzed FBS, 0.0632 µM
[6] = HPLM + 10% dialyzed FBS, 0.19 µM
[7] = HPLM + 10% dialyzed FBS, 0.569 µM
[8] = HPLM + 10% dialyzed FBS, 1.71 µM
[9] = HPLM + 10% dialyzed FBS, 5.12 µM
[10] = HPLM + 10% dialyzed FBS, 15.4 µM
[11] = HPLM + 10% dialyzed FBS, 46.1 µM
[12] = RPMI 5 mM glucose + 10% FBS, 0.000781 µM
[13] = RPMI 5 mM glucose + 10% FBS, 0.00234 µM
[14] = RPMI 5 mM glucose + 10% FBS, 0.00702 µM
[15] = RPMI 5 mM glucose + 10% FBS, 0.0211 µM
[16] = RPMI 5 mM glucose + 10% FBS, 0.0632 µM
[17] = RPMI 5 mM glucose + 10% FBS, 0.19 µM
[18] = RPMI 5 mM glucose + 10% FBS, 0.569 µM
[19] = RPMI 5 mM glucose + 10% FBS, 1.71 µM
[20] = RPMI 5 mM glucose + 10% FBS, 5.12 µM
[21] = RPMI 5 mM glucose + 10% FBS, 15.4 µM
[22] = RPMI 5 mM glucose + 10% FBS, 46.1 µM
[23] = RPMI 5 mM glucose + 10% dialyzed FBS, 0.000781 µM
[24] = RPMI 5 mM glucose + 10% dialyzed FBS, 0.00234 µM
[25] = RPMI 5 mM glucose + 10% dialyzed FBS, 0.00702 µM
[26] = RPMI 5 mM glucose + 10% dialyzed FBS, 0.0211 µM
[27] = RPMI 5 mM glucose + 10% dialyzed FBS, 0.0632 µM
[28] = RPMI 5 mM glucose + 10% dialyzed FBS, 0.19 µM
[29] = RPMI 5 mM glucose + 10% dialyzed FBS, 0.569 µM
[30] = RPMI 5 mM glucose + 10% dialyzed FBS, 1.71 µM
[31] = RPMI 5 mM glucose + 10% dialyzed FBS, 5.12 µM
[32] = RPMI 5 mM glucose + 10% dialyzed FBS, 15.4 µM
[33] = RPMI 5 mM glucose + 10% dialyzed FBS, 46.1 µM

Row | Structure (SMILES) | cell viability [1] [%] | cell viability [2] [%] | cell viability [3] [%] | cell viability [4] [%] | cell viability [5] [%] | cell viability [6] [%] | cell viability [7] [%] | cell viability [8] [%] | cell viability [9] [%] | cell viability [10] [%] | cell viability [11] [%] | cell viability [12] [%] | cell viability [13] [%] | cell viability [14] [%] | cell viability [15] [%] | cell viability [16] [%] | cell viability [17] [%] | cell viability [18] [%] | cell viability [19] [%] | cell viability [20] [%] | cell viability [21] [%] | cell viability [22] [%] | cell viability [23] [%] | cell viability [24] [%] | cell viability [25] [%] | cell viability [26] [%] | cell viability [27] [%] | cell viability [28] [%] | cell viability [29] [%] | cell viability [30] [%] | cell viability [31] [%] | cell viability [32] [%] | cell viability [33] [%]
1 | CNC(=O)c1ccc2c(c1)NC(=O)/C2=C(\Nc1cccc(CN(C)C)c1)c1ccccc1 | 74.4 | 93.6 | 98.8 | 109 | 85.3 | 89.9 | 78.1 | 57.7 | 4.44 | 23.4 | 1.26 | 97 | 94.9 | 97.3 | 106 | 93.5 | 89.7 | 94.5 | 4.33 | 3.4 | 1.5 | 1.29 | 78.4 | 92.3 | 97.5 | 92.1 | 87.2 | 108 | 81.4 | 35.4 | 3.62 | 1.76 | 1.28
2 | NC(=O)c1cccc(-c2cc(Nc3ccc(OC(F)(F)F)cc3)ncn2)c1 | 82.4 | 92.7 | 95.5 | 91.9 | 87.2 | 111 | 101 | 106 | 87.8 | 82 | 69.3 | 105 | 116 | 106 | 111 | 104 | 117 | 112 | 111 | 113 | 101 | 69.1 | 80 | 91.6 | 96.5 | 91.8 | 95 | 98.2 | 96.1 | 104 | 84.8 | 68.9 | 54.1
3 | CC(C)(N)C(=O)N[C@H](COCc1ccccc1)C(=O)N1CCC2(CC1)CN([S+](C)(=O)[O-])c1ccccc12 |  |  |  |  |  |  |  |  |  |  |  | 124 | 127 | 122 | 155 | 130 | 130 | 139 | 121 | 114 | 91.9 | 36.8 |  |  |  |  |  |  |  |  |  |  | 
4 | C[C@]12CC[C@H]3[C@@H](CC(=C)\C4=C\C(=O)\C=C/[C@]34C)[C@@H]1CCC2=O | 89.7 | 92.6 | 96.3 | 105 | 107 | 92.8 | 94.4 | 90.7 | 97.8 | 34.9 | 64.8 | 111 | 90.8 | 89.2 | 96.9 | 98 | 95.3 | 104 | 106 | 114 | 36.5 | 54.6 | 98.1 | 86.9 | 96.4 | 110 | 103 | 101 | 115 | 111 | 115 | 33.2 | 59.9
5 | CO[C@@H](C(=O)N1Cc2[nH]nc(NC(=O)c3ccc(N4CCN(C)CC4)cc3)c2C1)c1ccccc1 | 95.5 | 84.2 | 103 | 90.9 | 71.1 | 55.6 | 38.4 | 24.6 | 28.3 | 24.3 | 24.9 | 107 | 92.3 | 103 | 94.6 | 59.3 | 38.9 | 23.5 | 20.5 | 19.7 | 15 | 18.7 | 87.9 | 97.1 | 87.4 | 90.7 | 59.8 | 39.5 | 32.2 | 20.2 | 25.1 | 20 | 16.4
